Here are results for twelve compounds from ChEMBL document CHEMBL1201862, “PubChem BioAssay data set” (2004).

“And” between values parts separate entries of the source, which are not always exact repeats. Equal entries are not always repeated.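 Values below derive from 48-hour exposures of cells grown in 96-well plates, with endpoints linearly interpolated between the two concentrations bracketing the appropriate inhibition level. At the GI50, growth is halved.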 The source made the active and inactive calls. Cut-off read from the data, not from the text of the source: active = GI50 up to about 1.1 µM and inactive = higher.

Holding throughout (assay): NCI-60 cell line screen, 48 h
For experiment [1], the system named is UACC-257.
Experiment [2] deals with T47D.
Experiment [3] deals with SK-MEL-5.
The test system of experiment [4] is MDA-MB-231.
Experiment [5] has as its system KM12.
Experiment [6] relates to HT-29.
Experiment [7] has as its system SK-MEL-2.
Experiment [8] deals with IGROV-1.
Experiment [9] deals with DU-145.
Experiment [10] concerns MOLT-4.
In experiment [11] the test system is OVCAR-5.
Experiment [12] relates to MCF7.
The subject of experiment [13] is OVCAR-8.
Experiment [14] has as its system ACHN.
Experiment [15] has as its system HOP-62.
Experiment [16] concerns Malme-3M.
In experiment [17] the test system is LOX IMVI.
In experiment [18] the test system is SR.
Experiment [19] concerns HL-60.
Experiment [20] concerns SK-MEL-28.

`COc1ccc(-c2nc(O)c3ccccc3n2)c(OC)c1`: the GI50 in [1], in experiment [2], in experiment [3], in experiment [4], in experiment [5] and in experiment [6] was > 100 µM (inactive) throughout. Besides, the GI50 in experiment [7], in [8], in experiment [9], in experiment [10], in experiment [11] and in [12] was > 100 µM (inactive) throughout. Also, the GI50 in experiment [13], in experiment [14], in experiment [15] and in experiment [16] was > 100 µM (inactive) each time.
As to `Cc1[nH]n(C2=NCCN2)c(=O)c1C`, the GI50 in [1], in [2], in [3], in [17], in experiment [4] and in experiment [5] was > 100 µM (inactive) in each case. The GI50 in experiment [6], in experiment [7], in experiment [8], in experiment [10], in experiment [11] and in experiment [18] was > 100 µM (inactive) throughout. The GI50 in experiment [12], in experiment [13], in experiment [19], in experiment [14], in experiment [15] and in experiment [16] was > 100 µM (inactive) each time.
As for `C/C(=N\Nc1nc2cccnc2s1)c1ccccn1`, the GI50 was < 0.01 µM (active) in experiment [1]; 0.033 µM (active) in [3]; < 0.01 µM (active) in [4]; 0.273 µM (active) in experiment [5]; < 0.01 µM (active) in experiment [6]; 2.98 µM (inactive) in [7]. The GI50 in experiment [20] is 0.364 µM (active); in experiment [8], < 0.0141 µM (active); in experiment [9], 0.316 µM (active); in experiment [10], < 0.01 µM (active); in experiment [11], 0.845 µM (active); in experiment [18], 0.0335 µM (active). In addition, the GI50 in [12] was 0.0136 µM (active); in experiment [13], < 0.01 µM (active); in experiment [19] it was < 0.01 µM (active); in [14] it was < 0.01 µM (active); in experiment [15], 0.401 µM (active); in experiment [16] it was < 0.01 µM (active).
With `COc1ccccc1CNC(=O)[C@H](Cc1ccc(O)cn1)NC(C)=O`, the GI50 in experiment [1], in [2], in experiment [3], in experiment [17], in experiment [5] and in experiment [6] was > 100 µM (inactive) in each case. Also, the GI50 in experiment [7], in experiment [20], in experiment [8], in [9], in experiment [11] and in [18] was > 100 µM (inactive) throughout. For the same compound, the GI50 in [12], in [19], in experiment [14], in experiment [15] and in experiment [16] was > 100 µM (inactive) in each case.
Regarding `O=P1(O)c2ccccc2CCc2ccccc21`, the GI50 in experiment [1], in experiment [3], in experiment [17], in experiment [4], in experiment [5] and in experiment [7] was > 100 µM (inactive) throughout. For the same compound, the GI50 in [20], in [8], in experiment [9], in [10], in experiment [12] and in experiment [13] was > 100 µM (inactive) each time. In addition, in experiment [15], the GI50 is > 100 µM (inactive).
Regarding `ON(CCc1ccncc1)Cc1ccccc1`, the GI50 in experiment [2], in [3], in experiment [17], in [5], in experiment [6] and in experiment [20] was > 100 µM (inactive) in each case. Besides, the GI50 in experiment [8], in experiment [9], in [10], in experiment [11], in [18] and in experiment [12] was > 100 µM (inactive) throughout. The GI50 in experiment [13], in [14], in experiment [15] and in [16] was > 100 µM (inactive) each time.
On to `Brc1cccc(Nc2ncnc3sc4c(c23)CCC2(C4)OCCO2)c1`, for which the GI50 was 26.7 µM (inactive) in experiment [1]; 5.61 µM (inactive) in [2]; 15.8 µM (inactive) in [3]; 18.6 µM (inactive) in experiment [17]; 87.1 µM (inactive) in [4]; 24 µM (inactive) in [5]. The GI50 was 45.4 µM (inactive) in experiment [6]; 33 µM (inactive) in experiment [7]; 8.73 µM (inactive) in [8]; 7.28 µM (inactive) in experiment [9]; > 100 µM (inactive) in [11]; 28.3 µM (inactive) in [12]. Further, the GI50 in [13] is 24.5 µM (inactive); in experiment [14] it was 4.68 µM (inactive); in experiment [15] it was 52.4 µM (inactive); in experiment [16] it was 39.2 µM (inactive).
Take `CN(C)C12C=CC=CC3=C(c4ccccc4)C(c4ccccc4)=C(c4ccccc4)C31c1ccccc1C2` (configuration not stated): the GI50 in experiment [1], in [2], in experiment [3], in experiment [4], in experiment [5] and in experiment [6] was > 100 µM (inactive) in each case. For the same compound, the GI50 in [20], in [8], in [10], in experiment [11], in experiment [18] and in experiment [12] was > 100 µM (inactive) throughout. For the same compound, the GI50 in experiment [13], in [19], in [14] and in experiment [15] was > 100 µM (inactive) each time.
Turning to `COc1cc(Oc2nc3ccccc3nc2C(=O)O)cc(OC)c1OC`, the GI50 in [1], in experiment [2], in experiment [3], in experiment [17], in [4] and in experiment [5] was > 100 µM (inactive) in each case. The GI50 in [6], in experiment [7], in experiment [20], in [8], in experiment [9] and in experiment [10] was > 100 µM (inactive) each time. For the same compound, the GI50 in [11], in experiment [18], in experiment [13], in [19], in experiment [14] and in [15] was > 100 µM (inactive) throughout. The GI50 in [16] was > 100 µM (inactive).
Take `O=C(NCCO)c1c(O)c2ccccc2[nH]c1=O`: the GI50 in experiment [1], in experiment [3], in experiment [17], in [4], in [5] and in experiment [6] was > 100 µM (inactive) each time. The GI50 in experiment [20], in experiment [8], in [9], in [10], in experiment [11] and in experiment [18] was > 100 µM (inactive) throughout. Besides, the GI50 in [12], in [13], in [19], in [14], in [15] and in [16] was > 100 µM (inactive) throughout.
As for `COc1ccc(OC)c(/C=C/[N+](=O)[O-])c1`, the GI50 in experiment [1] was 4.1 µM (inactive) and 3.92 µM (inactive); in experiment [2], 3.01 µM (inactive); in experiment [3], 3.29 µM (inactive) and 2.33 µM (inactive); in [17], 1.84 µM (inactive) and 948 nM (active); in experiment [4] it was 1.87 µM (inactive); in experiment [6], 3.47 µM (inactive) and 2.49 µM (inactive). In addition, the GI50 in experiment [7] was 2.41 µM (inactive) and 4.62 µM (inactive); in experiment [20], 2.01 µM (inactive) and 3.48 µM (inactive); in [9] it was 3.33 µM (inactive) and 3.03 µM (inactive); in [12] it was 2.32 µM (inactive); in experiment [13] it was 5.6 µM (inactive) and 4.23 µM (inactive); in [14], 1.82 µM (inactive) and 2.21 µM (inactive). In experiment [15], the GI50 is 4.93 µM (inactive) and 2.78 µM (inactive).
On to `COc1ccc(NC(=O)C2=C(SC)C(=O)N=C2N)cc1`, for which the GI50 in [1], in experiment [2], in [3], in [17], in experiment [4] and in experiment [5] was > 100 µM (inactive) each time. For the same compound, the GI50 in experiment [6] was > 100 µM (inactive); in experiment [7] it was 82 µM (inactive); in [20], > 100 µM (inactive); in experiment [8] it was 61.7 µM (inactive); in experiment [9] it was > 100 µM (inactive); in experiment [10], > 100 µM (inactive). For the same compound, the GI50 in [18] was 40.6 µM (inactive); in experiment [13] it was > 100 µM (inactive); in [19], > 100 µM (inactive); in experiment [14] it was > 100 µM (inactive); in experiment [15], > 100 µM (inactive).
